Source: patent US4957940A, “Bicyclo heptane and bicyclo octane substituted inhibitors of cholesterol synthesis” (Warner-Lambert Company, priority 1989, dated 1990)

System: biosynthesis of cholesterol
Test: CSI screen: inhibition of cholesterol biosynthesis (14C-acetate incorporation into nonsaponifiable lipid by rat liver homogenate)
Type: biochemical
Conditions: 50% inhibition of sterol synthesis over a one-hour period
Method: The ability of compounds of the present invention to inhibit the biosynthesis of cholesterol was measured by a method (designated CSI screen) which utilizes the procedure described by R. E. Dugan, et al, Archiv. Biochem. Biophys., (1972), 152, 21-27. In this method, the level of HMG-CoA enzyme activity in standard laboratory rats is increased by feeding the rats a chow diet containing 5% cholestryramine for four days, after which the rats are sacrificed.
The rat livers are homogenized, and the incorporation of […] into nonsaponifiable lipid by the rat liver homogenate is measured. The micromolar concentration of compound required for 50% inhibition of sterol synthesis over a one-hour period is measured, and expressed as an IC50 value.

Q: Which IC50 does the source give for `C=C1CC2(C)CC1C(c1ccccc1)=C2/C=C/[C@@H]1C[C@@H](O)CC(=O)O1` (relative stereo) here?
A: The IC50 was 440 nM.
